Measurements as given in US20240376084A1, “INHIBITORS OF ALPHA-HEMOLYSIN OF STAPHYLOCOCCUS AUREUS” (Helmholtz-Zentrum Fur Infektionsforschung GmbH, priority 2021, published 2024).
pEC50, pIC50: −log10 of the molar value.

Legend:
[1] = biological target: hemolysin alpha from Staphylococcus aureus (Staphylococcus aureus, UniProt P09616); experiment: cell-based
[2] = biological target: S. aureus Alpha hemolysin (Staphylococcus aureus, UniProt P09616); experiment: cell-based; settings: A549-LDH Assay activity
Chain of S. aureus Alpha hemolysin (P09616 27-319 limits assumed): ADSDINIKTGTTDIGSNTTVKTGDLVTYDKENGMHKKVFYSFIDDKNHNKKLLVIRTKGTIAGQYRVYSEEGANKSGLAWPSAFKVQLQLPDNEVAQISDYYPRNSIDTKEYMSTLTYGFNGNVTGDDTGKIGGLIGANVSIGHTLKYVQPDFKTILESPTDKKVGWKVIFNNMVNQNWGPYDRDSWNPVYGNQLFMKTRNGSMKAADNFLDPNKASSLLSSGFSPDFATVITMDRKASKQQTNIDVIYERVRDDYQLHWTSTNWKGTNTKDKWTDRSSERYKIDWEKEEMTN

Chain of hemolysin alpha from Staphylococcus aureus (P09616 27-319 limits assumed): as above

Structure (SMILES)	pEC50 [1]	pEC50 [2]	pIC50 [1]
CCOc1cc2[nH]c(=O)c(=O)[nH]c2cc1S(=O)(=O)Nc1ccc(OC(F)(F)F)cc1 [Compound 278, 7-ethoxy-2,3-dioxo-N-[4-(trifluoromethoxy)phenyl]-1,4-dihydroquinoxaline-6-sulfonamide]	6.00 to 7.00	> 7.52	
Cc1cc2[nH]c(=O)c(=O)[nH]c2cc1S(=O)(=O)Nc1ccc(-c2ccccc2)cc1 [Compound 61, N-([1,1′-biphenyl]-4-yl)-7-methyl-2,3-dioxo-1,2,3,4-tetrahydroquinoxaline-6-sulfonamide]		7.00 to 7.52	> 7.52
N#Cc1cc2[nH]c(=O)c(=O)[nH]c2cc1S(=O)(=O)Nc1ccc(OC(F)(F)F)cc1 [Compound 216, 7-cyano-2,3-dioxo-N-(4-(trifluoromethoxy)phenyl)-1,2,3,4-tetrahydroquinoxaline-6-sulfonamide]	6.00 to 7.00	6.00 to 7.00	
O=c1[nH]c2cc(F)c(S(=O)(=O)Nc3ccc(C4CC4)cc3)cc2[nH]c1=O [Compound 68, N-(4-cyclopropylphenyl)-7-fluoro-2,3-dioxo-1,2,3,4-tetrahydroquinoxaline-6-sulfonamide]		6.00 to 7.00	7.00 to 7.52
COc1ccc(-c2ccc(NS(=O)(=O)c3cc4[nH]c(=O)c(=O)[nH]c4cc3C)cc2Cl)cc1F [Compound 320, N-[3-chloro-4-(3-fluoro-4-methoxy-phenyl)phenyl]-7-methyl-2,3-dioxo-1,4-dihydroquinoxaline-6-sulfonamide]	> 7.52	> 7.52	
Cc1cc2[nH]c(=O)c(=O)[nH]c2cc1S(=O)(=O)Nc1ccc(-c2ccc3nccn3c2)c(Cl)c1 [Compound 328, N-(3-chloro-4-imidazo[1,2-a]pyridin-6-yl-phenyl)-7-methyl-2,3-dioxo-1,4-dihydroquinoxaline-6-sulfonamide]	6.00 to 7.00	6.00 to 7.00	
Cc1cc(NS(=O)(=O)c2cc3[nH]c(=O)c(=O)[nH]c3cc2Cl)ccc1-c1ccccc1 [Compound 45, 7-chloro-N-(2-methyl-[1,1′-biphenyl]-4-yl)-2,3-dioxo-1,2,3,4-tetrahydroquinoxaline-6-sulfonamide]		7.00 to 7.52	7.00 to 7.52
Cc1cc(NS(=O)(=O)c2cc3[nH]c(=O)c(=O)[nH]c3cc2C)ccc1OC(F)(F)F [Compound 323, 7-methyl-N-[3-methyl-4-(trifluoromethoxy)phenyl]-2,3-dioxo-1,4-dihydroquinoxaline-6-sulfonamide]	7.00 to 7.52	> 7.52	
Cc1ccc(-c2ccc(NS(=O)(=O)c3cc4[nH]c(=O)c(=O)[nH]c4cc3C)cc2Cl)o1 [Compound 69, N-(3-chloro-4-(5-methylfuran-2-yl)phenyl)-7-methyl-2,3-dioxo-1,2,3,4-tetrahydroquinoxaline-6-sulfonamide]		5.22 to 6.00	7.00 to 7.52
Cc1cc2[nH]c(=O)c(=O)[nH]c2cc1S(=O)(=O)Nc1ccc(-c2ccnc(Cl)c2)c(Cl)c1 [Compound 30, N-(3-chloro-4-(2-chloropyridin-4-yl)phenyl)-7-methyl-2,3-dioxo-1,2,3,4-tetrahydroquinoxaline-6-sulfonamide]		7.00 to 7.52	> 7.52
Cc1cc2[nH]c(=O)c(=O)[nH]c2cc1S(=O)(=O)Nc1ccc(C2=CCCCC2)c(Cl)c1 [Compound 274, N-[3-chloro-4-(cyclohexen-1-yl)phenyl]-7-methyl-2,3-dioxo-1,4-dihydroquinoxaline-6-sulfonamide]	7.00 to 7.52	7.00 to 7.52	
COc1ncc(-c2ccc(NS(=O)(=O)c3cc4[nH]c(=O)c(=O)[nH]c4cc3C)cc2Cl)cn1 [Compound 260, N-[3-chloro-4-(2-methoxypyrimidin-5-yl)phenyl]-7-methyl-2,3-dioxo-1,4-dihydroquinoxaline-6-sulfonamide]	6.00 to 7.00	6.00 to 7.00	
Cc1cc2[nH]c(=O)c(=O)[nH]c2cc1S(=O)(=O)Nc1ccc(-c2ccc3[nH]ncc3c2)c(Cl)c1 [Compound 273, N-[3-chloro-4-(1H-indazol-5-yl)phenyl]-7-methyl-2,3-dioxo-1,4-dihydroquinoxaline-6-sulfonamide]	7.00 to 7.52	6.00 to 7.00	
Cc1cc2[nH]c(=O)c(=O)[nH]c2cc1S(=O)(=O)Nc1cc(Cl)c(-c2ccc(F)c(Cl)c2)cn1 [Compound 211, N-(4-chloro-5-(3-chloro-4-fluorophenyl)pyridin-2-yl)-7-methyl-2,3-dioxo-1,2,3,4-tetrahydroquinoxaline-6-sulfonamide]	6.00 to 7.00	6.00 to 7.00	
Cc1cc2[nH]c(=O)c(=O)[nH]c2cc1S(=O)(=O)Nc1ccc(-c2ccc3nc[nH]c3c2)c(Cl)c1 [Compound 359, N-[4-(3H-benzimidazol-5-yl)-3-chloro-phenyl]-7-methyl-2,3-dioxo-1,4-dihydroquinoxaline-6-sulfonamide]	6.00 to 7.00	7.00 to 7.52	
Cc1cc2[nH]c(=O)c(=O)[nH]c2cc1S(=O)(=O)Nc1ccc(-c2ccccc2)c(Cl)c1 [Compound 1, N-(2-chloro-[1,1′-biphenyl]-4-yl)-7-methyl-2,3-dioxo-1,2,3,4-tetrahydroquinoxaline-6-sulfonamide]		7.00 to 7.52	> 7.52

Structure (SMILES)	pEC50 [1]	pEC50 [2]	pIC50 [1]
O=c1[nH]c2cc(OC3CC3)c(S(=O)(=O)Nc3ccc(OC(F)(F)F)cc3)cc2[nH]c1=O [Compound 382, 7-(cyclopropoxy)-2,3-dioxo-N-[4-(trifluoromethoxy)phenyl]-1,4-dihydroquinoxaline-6-sulfonamide]	5.46 to 6.00	6.00 to 7.00	
Cc1ccc(-c2ccc(NS(=O)(=O)c3cc4[nH]c(=O)c(=O)[nH]c4cc3C)cc2Cl)s1 [Compound 52, N-(3-chloro-4-(5-methylthiophen-2-yl)phenyl)-7-methyl-2,3-dioxo-1,2,3,4-tetrahydroquinoxaline-6-sulfonamide]		6.00 to 7.00	7.00 to 7.52
O=c1[nH]c2cc(Cl)c(S(=O)(=O)Nc3ccc(Br)c(Cl)c3)cc2[nH]c1=O [Compound 144, N-(4-bromo-3-chlorophenyl)-7-chloro-2,3-dioxo-1,2,3,4-tetrahydroquinoxaline-6-sulfonamide]		5.22 to 6.00	6.00 to 7.00
Cc1cc2[nH]c(=O)c(=O)[nH]c2cc1S(=O)(=O)Nc1ccc(-c2ccc3cc[nH]c3c2)c(C(F)(F)F)c1 [Compound 369, N-[4-(1H-indol-6-yl)-3-(trifluoromethyl)phenyl]-7-methyl-2,3-dioxo-1,4-dihydroquinoxaline-6-sulfonamide]	> 7.52	7.00 to 7.52	
Cc1cc2[nH]c(=O)c(=O)[nH]c2cc1S(=O)(=O)Nc1ccc2c(c1)CCC2 [Compound 79, N-(2,3-dihydro-1H-inden-5-yl)-7-methyl-2,3-dioxo-1,2,3,4-tetrahydroquinoxaline-6-sulfonamide]		7.00 to 7.52	6.00 to 7.00
Cc1cc2[nH]c(=O)c(=O)[nH]c2cc1S(=O)(=O)Nc1ccc(-c2cccc(OCCN(C)C)c2)c(Cl)c1 [Compound 331, N-[3-chloro-4-[3-[2-(dimethylamino)ethoxy]phenyl]phenyl]-7-methyl-2,3-dioxo-1,4-dihydroquinoxaline-6-sulfonamide]	6.00 to 7.00	6.00 to 7.00	
Cc1cc2[nH]c(=O)c(=O)[nH]c2cc1S(=O)(=O)Nc1ccc(-c2cccc(N3CCC3)c2)c(Cl)c1 [Compound 206, N-(3′-(azetidin-1-yl)-2-chloro-[1,1′-biphenyl]-4-yl)-7-methyl-2,3-dioxo-1,2,3,4-tetrahydroquinoxaline-6-sulfonamide]	> 7.52	7.00 to 7.52	
Cc1ccc(-c2c(C)cc(NS(=O)(=O)c3cc4[nH]c(=O)c(=O)[nH]c4cc3C)cc2C)s1 [Compound 70, N-(3,5-dimethyl-4-(5-methylthiophen-2-yl)phenyl)-7-methyl-2,3-dioxo-1,2,3,4-tetrahydroquinoxaline-6-sulfonamide]		6.00 to 7.00	7.00 to 7.52
Cc1cc(NS(=O)(=O)c2cc3[nH]c(=O)c(=O)[nH]c3cc2C)ccc1Br [Compound 171, N-(4-bromo-3-methylphenyl)-7-methyl-2,3-dioxo-1,2,3,4-tetrahydroquinoxaline-6-sulfonamide]		7.00 to 7.52	6.00 to 7.00
Cc1cc2[nH]c(=O)c(=O)[nH]c2cc1S(=O)(=O)Nc1ccc(-c2ccc3c(c2)OCCN3C)c(Cl)c1 [Compound 329, N-[3-chloro-4-(4-methyl-2,3-dihydro-1,4-benzoxazin-7-yl)phenyl]-7-methyl-2,3-dioxo-1,4-dihydroquinoxaline-6-sulfonamide]	6.00 to 7.00	5.22 to 6.00	
Cc1cc2[nH]c(=O)c(=O)[nH]c2cc1S(=O)(=O)Nc1ccc(-c2ccncc2)cc1 [Compound 127, 7-methyl-2,3-dioxo-N-(4-(pyridin-4-yl)phenyl)-1,2,3,4-tetrahydroquinoxaline-6-sulfonamide]		6.00 to 7.00	6.00 to 7.00
Cc1cc2[nH]c(=O)c(=O)[nH]c2cc1S(=O)(=O)Nc1ccc(-c2ccc3c(c2)N(C)CCO3)c(Cl)c1 [Compound 354, N-[3-chloro-4-(4-methyl-2,3-dihydro-1,4-benzoxazin-6-yl)phenyl]-7-methyl-2,3-dioxo-1,4-dihydroquinoxaline-6-sulfonamide]	7.00 to 7.52	6.00 to 7.00	
Cc1cc2[nH]c(=O)c(=O)[nH]c2cc1S(=O)(=O)Nc1cc(C)c(-c2ccccc2)c(C)c1 [Compound 73, N-(2,6-dimethyl-[1,1′-biphenyl]-4-yl)-7-methyl-2,3-dioxo-1,2,3,4-tetrahydroquinoxaline-6-sulfonamide]		6.00 to 7.00	6.00 to 7.00
Cc1cc2[nH]c(=O)c(=O)[nH]c2cc1S(=O)(=O)Nc1ccc(-c2ccc3cc[nH]c3c2)c(Cl)c1 [Compound 271, N-[3-chloro-4-(1H-indol-6-yl)phenyl]-7-methyl-2,3-dioxo-1,4-dihydroquinoxaline-6-sulfonamide]	> 7.52	> 7.52	
Cc1cc2[nH]c(=O)c(=O)[nH]c2cc1S(=O)(=O)Nc1ccc(-c2ccc3c(c2)NCC3)c(Cl)c1 [Compound 13, N-(3-chloro-4-(indolin-6-yl)phenyl)-7-methyl-2,3-dioxo-1,2,3,4-tetrahydroquinoxaline-6-sulfonamide]		6.00 to 7.00	> 7.52
